“Also recorded” adds a separate entry of the source.
How the values were obtained:
[1] = tested on: MT2 cells (HTLV-1-infected cell line); experiment: MTT cell viability assay, MT2 cells; format: cell-based; settings: Homo sapiens, 72 h incubation
Procedure: (§1) The 1 × 10^5 cells/mL were incubated with or without compounds 5a, 5b, 5c, 5d or DMSO (Sigma-Aldrich/Merck, St. Louis, MO, USA) at 37 °C in humidified atmosphere with a 5% CO2. After 72 h, the cellular viability was assessed using 5 mg/mL of 3-(4,5-dimethylthiazol-2-yl)-2,5-diphenyltetrazolium bromide (MTT, Sigma-Aldrich/Merck). Cells were incubated for 3 h, centrifuged, and formazan crystal was dissolved with DMSO. Plates were read on a Paradigma® spectrofluorometer (Molecular Devices, San Jose, CA, USA) at a 490 nm wavelength. Cell death was also evaluated using Propidium Iodide (Biolegend) exclusion after a 24 h culture under the same conditions described above. The fluorescence was examined by FACSCalibus flow cytometry (BD) and 10,000 events were acquired for the experimental data. Analysis was accomplished using Summit V4.0 or FlowJo software (Becton, Dickingson and Company, Santa Barbara, CA, USA).
(§2) Statistical analysis was performed by one-way analysis of variance (ANOVA) and means were compared using a Tukey post-test. The IC50 values were obtained using nonlinear regression. Data were analyzed using GraphPad Prism-5 software (GraphPad software, San Diego, CA, USA), and p ≤ 0.05 was considered statistically significant.

[2] = tested on: C91/PL cells (HTLV-1-infected); experiment: MTT cell viability assay, C91/PL cells; format: cell-based; settings: 72 h incubation
Procedure: as §1, §2

Jurkat cells [3] = experiment: MTT cell viability assay, Jurkat cells; format: cell-based; settings: Homo sapiens, 72 h incubation
Procedure: as §1, §2

Jurkat cells [4] = experiment: Necrosis by propidium iodide labeling (flow cytometry), Jurkat cells; format: cell-based, human; settings: 25 µM, 24 h, PI labeling
Procedure: as §1

MT2 cells = experiment: Necrosis by propidium iodide labeling (flow cytometry), MT2 cells; format: cell-based; settings: 25 µM, 24 h, PI labeling
Procedure: as §1

C91/PL cells = experiment: Necrosis by propidium iodide labeling (flow cytometry), C91/PL cells; format: cell-based; settings: 25 µM, 24 h, PI labeling
Procedure: as §1

salmon DNA = experiment: DNA interaction assay (fluorescence emission); format: binding; settings: 25 µM compound, DNA 2, 10 and 100 ng/mL
Procedure: Fluorescence emission spectroscopic titration experiments of DNA were conducted in the absence and presence of a constant concentration of the mesoionic compounds 5a–d. […] After that, the fluorescence emission was recorded after 1 h of DNA incubation with or without compounds 5a–d (25 µM) or DMSO, over a wavelength range of 300 to 600 nm in a Tris-acetate-EDTA buffer (Promega) at room temperature. The slit widths for excitation and emission were set to 5.0 nm. The fluorescence was examined using a F4500 fluorometer (Hitachi, New Jersey, NJ, USA).

[5] = biological target: T1, human serum albumin (HSA) (Homo sapiens, UniProt P02768); experiment: Steady-state fluorescence quenching of HSA; format: binding; settings: for Kd: Ka (modified Stern–Volmer binding constant)
T1 construct: three analogous domains (I, II, and III) having amino acid residues of 1–195, 196–383, and 384–585
T1 sequence (P02768 25-609): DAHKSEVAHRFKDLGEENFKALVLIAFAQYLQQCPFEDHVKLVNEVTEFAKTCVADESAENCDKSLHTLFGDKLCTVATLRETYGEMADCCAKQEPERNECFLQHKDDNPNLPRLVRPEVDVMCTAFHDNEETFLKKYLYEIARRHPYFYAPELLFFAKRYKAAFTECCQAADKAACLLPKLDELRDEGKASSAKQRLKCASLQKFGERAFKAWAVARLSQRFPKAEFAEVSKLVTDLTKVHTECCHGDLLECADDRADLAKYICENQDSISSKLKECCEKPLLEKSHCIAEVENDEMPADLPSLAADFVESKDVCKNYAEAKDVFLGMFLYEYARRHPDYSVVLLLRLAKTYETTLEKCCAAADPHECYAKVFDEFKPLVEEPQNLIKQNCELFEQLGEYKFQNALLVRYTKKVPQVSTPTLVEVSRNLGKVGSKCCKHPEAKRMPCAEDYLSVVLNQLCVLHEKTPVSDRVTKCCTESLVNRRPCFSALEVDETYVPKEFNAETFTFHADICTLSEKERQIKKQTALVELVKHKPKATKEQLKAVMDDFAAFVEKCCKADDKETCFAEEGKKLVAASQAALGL
Procedure: The steady-state fluorescence spectra were measured in the 290–450 nm range, at 296, 303, and 310 K, with the excitation wavelength at λ = 295 nm. To a 3.0 mL solution containing an appropriate concentration of HSA (1.00 × 10^−5 M), successive aliquots from a stock solution of each mesoionic under study (1.00 × 10^−3 M in DMSO) were added, with final concentrations of 0.17, 0.33, 0.50, 0.66, 0.83, 0.99, 1.15, and 1.32 × 10^−5 M. The addition was done manually by using a micro syringe. The inner filter correction for the observed steady-state fluorescence of HSA:mesoionic compounds was done in order to compensate for the absorption value of 5a–d at the excitation and emission wavelengths (295 and 340 nm, respectively) when applying Equation (1):(1) Fcor=Fobs10^[Aexc+Aem/2] where Fcor and Fobs are the corrected and observed steady-state fluorescence intensity values, respectively, while Aex and Aem represent absorbance values for each ligand at the excitation and emission wavelengths (λ = 295 and 340 nm, respectively).
The binding properties of each ligand toward HSA—Stern–Volmer quenching constant (KSV), bimolecular quenching rate constant (kq), modified Stern–Volmer binding constant (Ka), enthalpy change (ΔH°), entropy change (ΔS°), and Gibbs’ free energy change (ΔG°)—were calculated from the steady-state fluorescence quenching data according to Equations (2)–(5):(2) F0/F=1+kqτ0[Q]=1+KSV[Q] (3) F0/F0−F=1/f[Q]Ka+1/f (4) lnKa=−ΔH^0/RT+ΔS^0/R (5) ΔG^0=ΔH^0−TΔS^0 where F0 and F are the steady-state fluorescence intensities of HSA in the absence and presence of mesoionics, respectively. [Q] and τ0 are the ligand concentration and fluorescence lifetime, respectively, of the fluorophore in the absence of quencher (5.54 × 10^−9 s—experimental data, see Section 2.3.1). T, ƒ, and R are the temperature (296, 303, and 310 K), fraction of the initial fluorescence intensity that corresponds to fluorophore that is accessible to the quencher (f ≈ 1.0), and gas constant (8.3145 J/mol.K), respectively.

[6] = biological target: T1, human serum albumin (HSA); experiment: Time-resolved fluorescence decay of HSA; format: binding; settings: HSA 1.00 × 10^−5 M with 1.32 × 10^−5 M compound, ca 298 K
Procedure: The time-resolved fluorescence decay of a 3.0 mL solution of HSA (1.00 × 10^−5 M, in phosphate buffer solution-PBS) was measured in the absence and presence of the maximum concentration of each mesoionic used in the steady-state fluorescence studies (1.32 × 10^−5 M) at room temperature (ca 298 K).

[7] = biological target: T1, human serum albumin (HSA); experiment: Circular dichroism of HSA (secondary structure); format: binding; settings: CD, 310 K, 1.32 × 10^−5 M compound
Procedure: The CD spectra were recorded in the 200–250 nm range at 310 K for free serum albumin (1.00 × 10^−6 M) and for HSA with the higher concentration of each mesoionic used in the steady-state fluorescence studies (1.32 × 10^−5 M). Each spectrum was taken on the average of three scans. The obtained data were further converted into mean residue ellipticity (MRE) according to Equation (6):(6) MRE=θ/(10.n.l.Cp) where θ is the observed ellipticity (mdeg); n is the number of amino acid residues (585 to HSA), l is the length of the optical cuvette (1.0 cm), and Cp is the molar concentration of HSA (1.00 × 10^−6 M). The 5a–d induced helical content perturbation at 208 and 222 nm were calculated using Equation (7):(7) (A) α−helix%(−MRE208−4000)/(33000−4000)×100(B) α−helix%(−MRE222−2340)/(30300)×100 where MRE208 and MRE222 are the significant molar residual ellipticities (deg.cm^2/dmol) at 208 nm and 222 nm, respectively.

[8] = biological target: T1, human serum albumin (HSA); experiment: Zeta potential of HSA (surface perturbation); format: binding
Procedure: All zeta potential (ZP) measurements were performed with 10 runs at 298 K and results were reported in terms of ZP ± SD. The ZP was measured for the HSA solution (1.0 × 10^−5 M in PBS solution) without and in the presence of the mesoionic compounds at the maximum concentration used in the steady-state fluorescence experiments (1.32 × 10^−5 M) at room temperature (ca. 298 K).

[9] = tested on: adult T-cell leukemia/lymphoma (ATLL); set-up: method as in PMID 25733162; settings: in combination with multi-agent chemotherapy, improved from 33%; cited from earlier work

COc1ccc(Nc2n[n+](-c3ccccc3)c(/C=C/c3ccccc3)s2)cc1.[Cl-] [5b, (E)-3-Phenyl-5-(4′-methoxyphenylamino)-2-styryl-1,3,4-thiadiazol-3-ium chloride]
IC50 [1]: 5.09 µM | IC50 [2]: 4.5 µM | IC50 (Jurkat cells [3]): 1.74 µM | necrotic cells (Jurkat cells [4]): 75.37 ± 3.63% | necrotic cells (MT2 cells): 35.34 ± 7.80% | necrotic cells (C91/PL cells): 33.75 ± 1.65% | interaction with DNA strands (salmon DNA): can interact with the DNA strands; also recorded: could interact with DNA strands | KSV (Stern–Volmer quenching constant) ([5]; 296 K): 1.10 ± 0.02 × 10^5 M^−1 | kq (bimolecular quenching rate constant) ([5]; 296 K): 1.99e+13 M⁻¹ s⁻¹ | ΔG° ([5]; 296 K): -6.69 kcal/mol | KSV (Stern–Volmer quenching constant) ([5]; 303 K): 1.14 ± 0.03 × 10^5 M^−1 | kq (bimolecular quenching rate constant) ([5]; 303 K): 2.06e+13 M⁻¹ s⁻¹ | ΔG° ([5]; 303 K): -6.84 kcal/mol | KSV (Stern–Volmer quenching constant) ([5]; 310 K): 1.15 ± 0.03 × 10^5 M^−1 | kq (bimolecular quenching rate constant) ([5]; 310 K): 2.07e+13 M⁻¹ s⁻¹ | ΔG° ([5]; 310 K): -6.98 kcal/mol | Kd ([5]; 296 K): 11.7 µM | Kd ([5]; 303 K): 11.8 µM | Kd ([5]; 310 K): 12.1 µM | ΔS° ([5]; van't Hoff, 296–310 K): 8.81 ± 0.06 × 10^−2 kJ.mol^−1K^−1 | Relative % of τ1 [6]: 23.9% | Relative % of τ2 [6]: 76.1% | τ1 (HSA fluorescence lifetime) [6]: 1.66 ± 0.12 ns | τ2 (HSA fluorescence lifetime) [6]: 5.25 ± 0.11 ns | α-helix % of HSA at 222 nm ([7]; HSA alone 80.1%): 77.3% | α-helix % of HSA at 208 nm ([7]; HSA alone 86.7%): 82.4% | ζ (zeta potential of HSA) ([8]; HSA with 1.32 × 10^−5 M compound, HSA alone −9.15 ± 1.79): −8.55 ± 1.46 mV | Conductance ([8]; ZP measurement, HSA with compound): 29,642 µs

B1: Mogamulizumab: anti-CCR4 monoclonal antibody (antibody, chains of the INN, looked up, V domains shown)
VH: EVQLVESGGDLVQPGRSLRLSCAASGFIFSNYGMSWVRQAPGKGLEWVATISSASTYSYYPDSVKGRFTISRDNAKNSLYLQMNSLRVEDTALYYCGRHSDGNFAFGYWGQGTLVTVSS
VL: DVLMTQSPLSLPVTPGEPASISCRSSRNIVHINGDTYLEWYLQKPGQSPQLLIYKVSNRFSGVPDRFSGSGSGTDFTLKISRVEAEDVGVYYCFQGSLLPWTFGQGTKVEIK
therapy response [9]: 52%
